The record followed here is ChEMBL document CHEMBL1157033, “Developing a complete pharmacology for AMPA receptors: a perspective on subtype-selective ligands” (Bioorg Med Chem, 2010).

Test [1] addresses T1, Glutamate receptor 1 (Homo sapiens, UniProt P42261). In words: Activity at recombinant GluA1 receptor flip isoform expressed in Xenopus oocytes assessed as potentiation of glutamate-induced current at 100 uM relative to control. Format: cell-based. The settings on record: Oocyte.
For test [2], the target named is T1, Glutamate receptor 1. In words: Agonist activity at recombinant GluA1 receptor flip isoform expressed in Xenopus oocytes. The test is classed as functional, cell-based, Oocyte.
Test [3] addresses T1, Glutamate receptor 1. In words: Activity at recombinant GluA1 receptor flop isoform expressed in Xenopus oocytes assessed as potentiation of glutamate-induced current at 100 uM relative to control. The settings on record: Oocyte. The test is classed as cell-based.
Test [4] addresses T2, Glutamate receptor 3 (Homo sapiens, UniProt P42263). Nature of the test: Activity at recombinant GluA3 receptor flip isoform expressed in Xenopus oocytes assessed as potentiation of glutamate-induced current at 100 uM relative to control. The test is classed as cell-based. The settings on record: Oocyte.
Test [5] deals with T3, Glutamate receptor AMPA 1/2 (Homo sapiens) (UniProt P42262+P42261). Nature of the test: Activity at recombinant GluA1A2 receptor flip isoform expressed in Xenopus oocytes assessed as potentiation of glutamate-induced current at 100 uM relative to control. The test is classed as cell-based. The settings on record: Oocyte.
Test [6] has as its target T3, Glutamate receptor AMPA 1/2 (Homo sapiens). In words: Activity at recombinant GluA1A2 receptor flop isoform expressed in Xenopus oocytes assessed as potentiation of glutamate-induced current at 100 uM relative to control. Format: cell-based. The following applies: Oocyte.
Test [7] is described as follows: Activity at recombinant GluA4 receptor flip isoform expressed in Xenopus oocytes assessed as effect on 300 uM glutamate-induced current. The settings on record: Oocyte. The test is classed as cell-based.
Test [8] addresses T4, Glutamate receptor AMPA 1/2 (Homo sapiens, UniProt P42261+P42262). Nature of the test: Activity at recombinant GluA1A2 receptor flip isoform expressed in Xenopus oocytes assessed as effect on 300 uM glutamate-induced current. Format: cell-based, Oocyte.
Test [9] addresses T4, Glutamate receptor AMPA 1/2. Nature of the test: Activity at recombinant GluA1A2 receptor flop isoform expressed in Xenopus oocytes assessed as effect on 300 uM glutamate-induced current. Format: cell-based, Oocyte.
Test [10] is described as follows: Activity at recombinant GluA2A4 receptor flip isoform expressed in Xenopus oocytes assessed as effect on 300 uM glutamate-induced current. The test is classed as cell-based. The settings on record: Oocyte.
The nature of test [11]: Activity at recombinant GluA2A4 receptor flop isoform expressed in Xenopus oocytes assessed as effect on 300 uM glutamate-induced current. The test is classed as cell-based. The following applies: Oocyte.
The target of test [12] is T1, Glutamate receptor 1. Nature of the test: Activity at human recombinant GluA1 receptor flip isoform expressed in HEK293 cells assessed as effect on glutamate-induced calcium flux by Fluo-4/AM staining-based fluorescence assay. The test is classed as cell-based. A general note: A change in cytosolic calcium serves as a functional read-out for many receptors and channels.

Test [13] concerns the target T5, Glutamate receptor 2 (Homo sapiens, UniProt P42262). In words: Activity at human recombinant GluA2 receptor flip isoform expressed in HEK293 cells assessed as effect on glutamate-induced calcium flux by Fluo-4/AM staining-based fluorescence assay. The test is classed as cell-based.
The target in test [14] is T5, Glutamate receptor 2. Nature of the test: Activity at human recombinant GluA2 receptor flop isoform expressed in HEK293 cells assessed as effect on glutamate-induced calcium flux by Fluo-4/AM staining-based fluorescence assay. Format: cell-based.
The target in test [15] is T2, Glutamate receptor 3. In words: Activity at human recombinant GluA3 receptor flip isoform expressed in HEK293 cells assessed as effect on glutamate-induced calcium flux by Fluo-4/AM staining-based fluorescence assay. The test is classed as cell-based.
Test [16] can be described thus: Activity at human recombinant GluA4 receptor flip isoform expressed in HEK293 cells assessed as effect on glutamate-induced calcium flux by Fluo-4/AM staining-based fluorescence assay. Format: cell-based.
For test [17], the target named is T1, Glutamate receptor 1. Nature of the test: Activity at recombinant GluA1 receptor flip isoform expressed in Xenopus oocytes co-expressing gamma2-TARP assessed as effect on 10 uM glutamate-induced current by voltage-clamp electrophysiological assay. Format: cell-based, Oocyte.
The target of test [18] is T1, Glutamate receptor 1. Nature of the test: Activity at recombinant GluA1 receptor flop isoform expressed in Xenopus oocytes co-expressing gamma2-TARP assessed as effect on 10 uM glutamate-induced current by voltage-clamp electrophysiological assay. Format: cell-based, Oocyte.
Test [19] addresses T1, Glutamate receptor 1. Nature of the test: Activity at recombinant GluA1 receptor flip isoform expressed in Xenopus oocytes assessed as potentiation of 10 uM AMPA-induced current at 100 uM relative to control. Format: cell-based. The following applies: Oocyte.
The target of test [20] is T1, Glutamate receptor 1. In words: Activity at recombinant GluA1 receptor flop isoform expressed in Xenopus oocytes assessed as potentiation of 10 uM AMPA-induced current at 100 uM relative to control. Format: cell-based. The settings on record: Oocyte.
The target of test [21] is T2, Glutamate receptor 3. In words: Activity at recombinant GluA3 receptor flip isoform expressed in Xenopus oocytes assessed as potentiation of 10 uM AMPA-induced current at 100 uM relative to control. The test is classed as cell-based. The following applies: Oocyte.
Test [22] concerns the target T2, Glutamate receptor 3. In words: Activity at recombinant GluA3 receptor flop isoform expressed in Xenopus oocytes assessed as potentiation of 10 uM AMPA-induced current at 100 uM relative to control. The settings on record: Oocyte. Format: cell-based.
Test [23] addresses T3, Glutamate receptor AMPA 1/2 (Homo sapiens). In words: Activity at recombinant GluA1A2 receptor flop isoform expressed in Xenopus oocytes assessed as potentiation of 10 uM AMPA-induced current at 100 uM relative to control. Format: cell-based. The settings on record: Oocyte.
In test [24] the target is T6, Glutamate receptor AMPA 2/3 (Homo sapiens) (UniProt P42263+P42262). In words: Activity at recombinant GluA2A3 receptor flop isoform expressed in Xenopus oocytes assessed as potentiation of 10 uM AMPA-induced current at 100 uM relative to control. The test is classed as cell-based. The settings on record: Oocyte.
Test [25] has as its target T3, Glutamate receptor AMPA 1/2 (Homo sapiens). Nature of the test: Activity at recombinant GluA1 receptor flip/GluA2 receptor flop isoform expressed in Xenopus oocytes assessed as potentiation of 10 uM AMPA-induced current at 100 uM relative to control. Format: cell-based. The settings on record: Oocyte.
Test [26] shares this target. Nature of the test: Activity at recombinant GluA1 receptor flop/GluA2 receptor flip isoform expressed in Xenopus oocytes assessed as potentiation of 10 uM AMPA-induced current at 100 uM relative to control. The following applies: Oocyte. Format: cell-based.
The target of test [27] is T6, Glutamate receptor AMPA 2/3 (Homo sapiens). Nature of the test: Activity at recombinant GluA2 receptor flop/GluA3 receptor flip isoform expressed in Xenopus oocytes assessed as potentiation of 10 uM AMPA-induced current at 100 uM relative to control. The test is classed as cell-based. The settings on record: Oocyte.
Test [28] shares this target. Nature of the test: Activity at recombinant GluA2 receptor flip/GluA3 receptor flop isoform expressed in Xenopus oocytes assessed as potentiation of 10 uM AMPA-induced current at 100 uM relative to control. Format: cell-based. The following applies: Oocyte.
Test [29] deals with Glutamate receptor 4 (Rattus norvegicus) (UniProt P19493). Nature of the test: Activity at recombinant GluA4 receptor flip isoform expressed in Xenopus oocytes assessed as potentiation of glutamate-induced current at 100 uM relative to control. The following applies: Oocyte.
For test [30], the target named is T1, Glutamate receptor 1. In words: Activity at recombinant GluA1 receptor flip isoform expressed in Xenopus oocytes co-expressing gamma2-TARP assessed as effect on glutamate/trichloromethiazide-induced current. The test is classed as cell-based, Oocyte.
The target in test [31] is T5, Glutamate receptor 2. Nature of the test: Activity at recombinant GluA2 receptor flip isoform expressed in Xenopus oocytes co-expressing gamma2-TARP assessed as effect on glutamate/trichloromethiazide-induced current. Format: cell-based, Oocyte.
Test [32] concerns the target T1, Glutamate receptor 1. Format: cell-based, Oocyte.
The target of test [33] is T2, Glutamate receptor 3. In words: Inhibition of recombinant GluA3 receptor flop isoform expressed in Xenopus oocytes assessed as inhibition of […] uM kainate-induced current by patch clamp electrophysiological assay. Format: cell-based, Oocyte. On the technique in general: Patch clamp records ionic current or voltage across a cell membrane.
Test [34] deals with T2, Glutamate receptor 3. The following applies: Oocyte; at 0.5 µM.
Another test has as its system Oocyte. The following applies: at 0.5 µM.

T5 sequence (P42262 whole entry, canonical isoform): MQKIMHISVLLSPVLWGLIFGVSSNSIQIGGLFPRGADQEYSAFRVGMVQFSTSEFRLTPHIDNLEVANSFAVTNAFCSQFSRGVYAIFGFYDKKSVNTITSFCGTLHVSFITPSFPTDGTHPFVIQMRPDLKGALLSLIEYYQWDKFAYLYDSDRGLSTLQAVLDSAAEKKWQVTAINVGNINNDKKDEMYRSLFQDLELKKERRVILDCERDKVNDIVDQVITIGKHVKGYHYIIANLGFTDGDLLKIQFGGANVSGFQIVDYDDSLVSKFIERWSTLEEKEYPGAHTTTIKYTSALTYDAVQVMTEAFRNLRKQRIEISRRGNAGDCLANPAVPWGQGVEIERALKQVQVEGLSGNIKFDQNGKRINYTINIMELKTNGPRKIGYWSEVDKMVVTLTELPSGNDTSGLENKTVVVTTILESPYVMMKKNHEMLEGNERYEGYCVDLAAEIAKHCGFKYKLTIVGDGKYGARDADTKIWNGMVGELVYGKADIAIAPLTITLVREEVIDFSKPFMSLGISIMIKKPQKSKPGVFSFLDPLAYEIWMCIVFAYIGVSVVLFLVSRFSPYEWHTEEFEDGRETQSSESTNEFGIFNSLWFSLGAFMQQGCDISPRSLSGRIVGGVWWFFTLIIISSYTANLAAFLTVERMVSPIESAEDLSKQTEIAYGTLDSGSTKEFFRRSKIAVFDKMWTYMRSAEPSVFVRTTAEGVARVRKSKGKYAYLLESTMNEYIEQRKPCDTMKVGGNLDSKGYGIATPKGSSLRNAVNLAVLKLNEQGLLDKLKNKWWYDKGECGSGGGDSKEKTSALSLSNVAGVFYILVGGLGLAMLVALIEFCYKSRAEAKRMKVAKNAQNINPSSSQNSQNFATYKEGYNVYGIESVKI
T2 sequence (P42263 whole entry, canonical isoform): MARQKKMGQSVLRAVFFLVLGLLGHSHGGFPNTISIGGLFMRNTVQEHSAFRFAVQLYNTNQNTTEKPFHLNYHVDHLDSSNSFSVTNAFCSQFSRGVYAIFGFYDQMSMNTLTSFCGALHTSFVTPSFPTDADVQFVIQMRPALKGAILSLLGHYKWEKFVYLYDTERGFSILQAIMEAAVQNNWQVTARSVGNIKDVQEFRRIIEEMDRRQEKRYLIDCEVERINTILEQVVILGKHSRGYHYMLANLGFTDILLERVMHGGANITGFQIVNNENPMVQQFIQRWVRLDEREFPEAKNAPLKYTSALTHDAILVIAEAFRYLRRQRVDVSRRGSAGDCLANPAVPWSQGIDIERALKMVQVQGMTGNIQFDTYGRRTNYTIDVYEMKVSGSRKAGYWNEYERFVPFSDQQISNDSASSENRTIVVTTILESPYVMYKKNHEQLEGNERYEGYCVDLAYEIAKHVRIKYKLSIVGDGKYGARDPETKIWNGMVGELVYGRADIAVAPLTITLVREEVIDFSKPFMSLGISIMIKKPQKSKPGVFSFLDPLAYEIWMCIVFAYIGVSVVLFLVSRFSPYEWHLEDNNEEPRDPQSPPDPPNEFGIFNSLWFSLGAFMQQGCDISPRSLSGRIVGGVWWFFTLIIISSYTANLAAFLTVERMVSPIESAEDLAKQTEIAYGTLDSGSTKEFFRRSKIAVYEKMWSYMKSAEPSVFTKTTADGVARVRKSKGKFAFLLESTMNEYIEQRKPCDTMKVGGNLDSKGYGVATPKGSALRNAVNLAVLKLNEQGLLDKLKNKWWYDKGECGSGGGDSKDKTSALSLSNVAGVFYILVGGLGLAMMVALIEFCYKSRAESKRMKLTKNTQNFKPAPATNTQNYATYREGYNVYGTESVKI
T1 sequence (P42261 whole entry, canonical isoform): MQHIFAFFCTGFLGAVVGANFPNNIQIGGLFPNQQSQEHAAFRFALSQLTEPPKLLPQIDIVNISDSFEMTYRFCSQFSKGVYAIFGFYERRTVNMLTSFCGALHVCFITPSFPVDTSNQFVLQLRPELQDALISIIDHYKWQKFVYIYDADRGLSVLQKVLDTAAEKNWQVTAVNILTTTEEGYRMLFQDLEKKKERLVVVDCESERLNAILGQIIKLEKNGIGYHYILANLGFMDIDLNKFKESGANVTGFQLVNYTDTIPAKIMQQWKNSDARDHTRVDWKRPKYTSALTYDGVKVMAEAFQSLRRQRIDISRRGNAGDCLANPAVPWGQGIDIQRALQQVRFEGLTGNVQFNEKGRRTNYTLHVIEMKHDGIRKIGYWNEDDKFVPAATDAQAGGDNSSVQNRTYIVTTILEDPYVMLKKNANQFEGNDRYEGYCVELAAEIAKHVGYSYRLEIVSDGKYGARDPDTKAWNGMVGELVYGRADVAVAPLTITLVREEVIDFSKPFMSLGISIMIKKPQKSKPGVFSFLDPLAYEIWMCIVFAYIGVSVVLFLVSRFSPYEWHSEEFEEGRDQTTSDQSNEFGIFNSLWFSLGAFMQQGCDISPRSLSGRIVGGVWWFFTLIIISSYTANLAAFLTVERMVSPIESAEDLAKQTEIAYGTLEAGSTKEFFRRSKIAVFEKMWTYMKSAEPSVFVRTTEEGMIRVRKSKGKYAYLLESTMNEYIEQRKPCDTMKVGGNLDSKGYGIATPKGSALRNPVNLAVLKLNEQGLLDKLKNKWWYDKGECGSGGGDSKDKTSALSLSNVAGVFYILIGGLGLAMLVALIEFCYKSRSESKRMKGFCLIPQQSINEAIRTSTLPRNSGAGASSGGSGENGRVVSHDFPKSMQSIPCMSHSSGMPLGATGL
T4 sequence (P42262 whole entry, canonical isoform): as the sequence (P42262 whole entry, canonical isoform) above
T4 sequence (P42261 whole entry, canonical isoform): as the sequence (P42261 whole entry, canonical isoform) above

As usually defined, the EC50 is the concentration needed to bring the measured effect to its halfway point. For `NS(=O)(=O)c1cc2c(cc1Cl)NC(C1CC3C=CC1C3)NS2(=O)=O` (stereo not given) [CYCLOTHIAZIDE], the fold change (FC) on Glutamate receptor 1 [1] worked out at 103; on Glutamate receptor 1 [3], 22; at Glutamate receptor 3 [4], 69; in test [5] it was 137; in test [6], 61; on Glutamate receptor 1 [19], 5.31. Besides, the fold change (FC) on Glutamate receptor 1 [20] came out at 1.34; at Glutamate receptor 3 [21], 3.59; at Glutamate receptor 3 [22] it was 5.59; in test [23] it was 3.53; in test [24] it was 10.5; in test [25] it was 19.9. Further, the fold change (FC) in test [26] was determined as 11.6; in test [27], 6.83; in test [28] it was 7.18; in [29] it was 171. Also, the EC50 on Glutamate receptor 1 [2] was 1 µM; in test [7], 5.9 µM; in test [8], 6.6 µM; in test [9], greater than 76 µM; in test [10], 5 µM; in test [11], greater than 91 µM. The EC50 was 19.8 µM on Glutamate receptor 1 [12]; 2.24 µM at Glutamate receptor 2 [13]; greater than 100 µM on Glutamate receptor 2 [14]; 13.7 µM at Glutamate receptor 3 [15]; 3.91 µM in test [16]; 2 µM at Glutamate receptor 1 [17]. Further, the EC50 on Glutamate receptor 1 [18] came out at 10 µM.
Consider `CNC(=O)N1N=C(c2ccc(N)cc2)c2cc3c(cc2CC1C)OCO3` (stereo not given) [GYKI-53655], for which the EC50 at Glutamate receptor 1 [30] stood at 28 µM; at Glutamate receptor 2 [31] it was 100 µM.
Usually IC50 stands for the midpoint of a concentration-inhibition curve. One may read the inhibition as the percentage by which the read-out fell short of the control. Read a high inhibition as strong suppression. As to `NCCCNCCCCNCCC(=O)NCCCCCNC(=O)[C@H](CC(N)=O)NC(=O)Cc1ccc(O)cc1O` [JORO SPIDER TOXIN 3], the figures for the IC50 against Glutamate receptor 1 [32] and at Glutamate receptor 3 [33] were 0.04 µM and 0.03 µM, respectively. The inhibition against Glutamate receptor 3 [34] amounted to 96%; with Oocyte it was 82%.
